Measured values: BindingDB's records for doi:10.1021/jm00123a012 (Dainippon Pharmaceutical, 1989)

Molecular target: Polyunsaturated fatty acid 5-lipoxygenase (Cavia porcellus)
Experiment: Inhibitory activity against 5-lipoxygenase in guinea pig leukocyte

SMILES: Cc1ccc(/C=C/C(=O)NCCCCN2CCN(C(c3ccccc3)c3ccccc3)CC2)cn1 [N-[4-(4-Benzhydryl-piperazin-1-yl)-butyl]-3-(6-methyl-pyridin-3-yl)-acrylamide]
- IC50: 4.86 µM
